US20240076293A1, “Compositions and Methods for Inhibiting Fibrosis, Inflammation and Cancer” (Georgia Tech Research Corporation, priority 2020, published 2024)
Read-outs that look alike come from different tables or passages of the source.

Columns and labels:
Type in all cases: cell-based
[1] = Anti-proliferation IC50, MRC-5; details: human, MRC-5 cells; Table 1, compounds of formula I; NI = no inhibition up to 500 μM
A549 = assay: Anti-proliferation IC50, A549; details: Homo sapiens
Hep-G2 = assay: Anti-proliferation IC50, Hep-G2; details: Homo sapiens, HepG2
VERO = assay: Anti-proliferation IC50, VERO; details: Chlorocebus sabaeus
MRC-5 = assay: Anti-proliferation IC50, MRC-5; details: Homo sapiens, MRC5; Table 2, compounds of formula II
[2] = Table 1, compounds of formula I, NI = no inhibition up to 500 μM, read-out: A549 (IC50)
[3] = Table 1, compounds of formula I, NI = no inhibition up to 500 μM, read-out: Hep-G2 (IC50)
[4] = Table 1, compounds of formula I, NI = no inhibition up to 500 μM, read-out: VERO (IC50)
[5] = Table 2, compounds of formula II, read-out: Anti-proliferation IC50 A549
[6] = Table 2, compounds of formula II, read-out: Anti-proliferation IC50 Hep-G2
[7] = Table 2, compounds of formula II, read-out: Anti-proliferation IC50 VERO

SMILES | IC50 (A549; [2]) | IC50 (Hep-G2; [3]) | IC50 (A549; [5]) | IC50 (Hep-G2; [6]) | IC50 [1] | IC50 (VERO; [4]) | IC50 (MRC-5) | IC50 (VERO; [7])
CC[C@H]1OC(=O)[C@@H](C)[C@@H](O[C@@H]2C[C@](C)(OC)[C@H](O)[C@@H](C)O2)[C@@H](C)[C@@H](O[C@H]2O[C@@H](C)C[C@@H](N(C)C)[C@@H]2OC(=O)/C=C/C=C/c2ccc3c(c2)OCO3)[C@](C)(OC)C[C@@H](C)C(=O)[C@H](C)[C@H](O)[C@]1(C)O | 16.9 ± 0.7 µM | 5.6 ± 0.1 µM |  |  | 7.8 ± 0.7 µM | 21 ± 2.3 µM |  | 
CC[C@@H]1OC(=O)[C@@H](C)[C@H](O)[C@@H](C)[C@H](O[C@H]2O[C@@H](C)C[C@@H](N(C)Cc3ccc(-c4cn(CCCNC(=O)CCCC[C@H]5CCSS5)nn4)cc3)[C@@H]2O)C(C)(O)C[C@H](C)CN(C)[C@@H](C)[C@H](O)[C@@]1(C)O (some centres unmarked) |  |  | 92.9 ± 13 µM | 157 ± 11.4 µM |  |  | 145 ± 3.5 µM | 168 ± 19.7 µM
CC[C@@H]1OC(=O)[C@@H](C)[C@H](O[C@H]2C[C@@](C)(OC)[C@@H](O)[C@H](C)O2)C(C)[C@H](O[C@H]2O[C@@H](C)C[C@@H](N(C)C(=O)/C=C/C=C/c3ccc4c(c3)OCO4)[C@@H]2O)C(C)(O)C[C@H](C)CN(C)[C@@H](C)[C@H](O)[C@@]1(C)O (some centres unmarked) |  |  | 19.6 ± 1.8 µM | 10.2 ± 1.9 µM |  |  | 11.4 ± 0.4 µM | 12.9 µM
CC[C@@H]1OC(=O)[C@@H](C)[C@H](O[C@H]2C[C@@](C)(OC)[C@@H](O)[C@H](C)O2)[C@@H](C)[C@H](O[C@H]2O[C@@H](C)C[C@@H](N(C)C(=O)/C=C/C(=O)OC)[C@@H]2O)C(C)(O)C[C@H](C)CN(C)[C@@H](C)[C@H](O)[C@@]1(C)O (some centres unmarked) |  |  | 214 µM | 126 µM |  |  |  | 212 µM
CCC1OC(=O)[C@H](C)[C@H](OC2C[C@@](C)(OC)[C@@H](O)[C@H](C)O2)[C@H](C)[C@@H](OC2O[C@H](C)C[C@H](N(C)Cc3cn(CCc4ccc(-n5cc(C)ccc5=O)cc4)nn3)[C@H]2O)[C@@](C)(OC)C[C@@H](C)C(=O)[C@H](C)[C@@H](O)[C@]1(C)O (some centres unmarked) [Compound 12b] | 116 ± 4.1 µM | 122 ± 3.7 µM |  |  | 84 ± 4.5 µM | 104 ± 20.3 µM |  | 
CCC1OC(=O)[C@H](C)[C@H](OC2C[C@@](C)(OC)[C@@H](O)[C@H](C)O2)[C@H](C)[C@@H](OC2O[C@H](C)C[C@H](N(C)CCCCc3ccc(-n4cc(C)ccc4=O)cc3)[C@H]2O)[C@@](C)(OC)C[C@@H](C)C(=O)[C@H](C)[C@@H](O)[C@]1(C)O (some centres unmarked) [Compound 14a] | 16.3 ± 1.6 µM | 30.9 ± 1.4 µM |  |  | 15.7 ± 2.3 µM | 19 ± 3.7 µM |  | 
CCC1OC(=O)[C@H](C)[C@H](OC2C[C@@](C)(OC)[C@@H](O)[C@H](C)O2)[C@H](C)[C@@H](OC2O[C@H](C)C[C@H](N(C)Cc3cn(CCCCc4ccc(-n5cc(C)ccc5=O)cc4)nn3)[C@H]2O)[C@@](C)(OC)C[C@@H](C)C(=O)[C@H](C)[C@@H](O)[C@]1(C)O (some centres unmarked) [Compound 14b] | 28.7 ± 3.4 µM | 44.8 ± 3.6 µM |  |  | 32.8 ± 5.1 µM | 33.3 ± 1.9 µM |  | 
CCC1OC(=O)[C@H](C)[C@H](OC2C[C@@](C)(OC)[C@@H](O)[C@H](C)O2)[C@H](C)[C@@H](OC2O[C@H](C)C[C@H](N(C)CC#Cc3ccc(-n4cc(C)ccc4=O)cc3)[C@H]2O)[C@@](C)(OC)C[C@@H](C)C(=O)[C@H](C)[C@@H](O)[C@]1(C)O (some centres unmarked) [Compound 19a] | 44.1 ± 10.8 µM | 50.7 ± 3 µM |  |  | 82.6 ± 0.3 µM | 55.5 ± 2.6 µM |  | 
CCC1OC(=O)[C@H](C)[C@H](OC2C[C@@](C)(OC)[C@@H](O)[C@H](C)O2)[C@H](C)[C@@H](OC2O[C@H](C)C[C@H](N(C)CCC#Cc3ccc(-n4cc(C)ccc4=O)cc3)[C@H]2O)[C@@](C)(OC)C[C@@H](C)C(=O)[C@H](C)[C@@H](O)[C@]1(C)O (some centres unmarked) [Compound 19b] | 59.9 ± 0.8 µM | 60.9 ± 9 µM |  |  | > 500 µM | 130 ± 21.2 µM |  | 
CCC1OC(=O)[C@H](C)[C@H](OC2C[C@@](C)(OC)[C@@H](O)[C@H](C)O2)[C@H](C)[C@@H](OC2O[C@H](C)C[C@H](N(C)CCCC#Cc3ccc(-n4cc(C)ccc4=O)cc3)[C@H]2O)[C@@](C)(OC)C[C@@H](C)C(=O)[C@H](C)[C@@H](O)[C@]1(C)O (some centres unmarked) [Compound 19c] | 58.6 ± 1.4 µM | 24 ± 1.2 µM |  |  | 15.2 ± 0.1 µM | 55.5 ± 0.4 µM |  | 
O=C(O)/C=C/C=C/c1ccc2c(c1)OCO2 [Piperic acid (PPA), Piperic acid, reference compound] | > 500 µM | > 500 µM |  |  | > 500 µM | > 500 µM |  | 
Cc1ccc(=O)n(-c2ccccc2)c1 [Pirfenidone (Pir), Pirfenidone, reference compound] | 5410 ± 241 µM | 10900 µM |  |  | 5300 ± 178 µM | 10788 ± 0.6 µM |  | 

The next lines start with results.

IC50 (A549; [2]) | IC50 (Hep-G2; [3]) | IC50 (A549; [5]) | IC50 (Hep-G2; [6]) | SMILES | IC50 [1] | IC50 (VERO; [4]) | IC50 (MRC-5) | IC50 (VERO; [7])
 |  | 27.4 ± 0.5 µM | 14.8 ± 2.1 µM | CC[C@@H]1OC(=O)[C@@H](C)[C@H](O)[C@@H](C)[C@H](O[C@H]2O[C@@H](C)C[C@@H](N(C)Cc3ccc(-c4cn(CCNC(=O)CCCC[C@H]5CCSS5)nn4)cc3)[C@@H]2O)C(C)(O)C[C@H](C)CN(C)[C@@H](C)[C@H](O)[C@@]1(C)O (some centres unmarked) |  |  | 17.9 ± 0.5 µM | 47.7 ± 6.2 µM
 |  | 15.6 ± 2.6 µM | 5 ± 0.5 µM | CC[C@@H]1OC(=O)[C@@H](C)[C@H](O[C@H]2C[C@@](C)(OC)[C@@H](O)[C@H](C)O2)[C@@H](C)[C@H](O[C@H]2O[C@@H](C)C[C@@H](N(C)C)[C@@H]2OC(=O)/C=C/C=C/c2ccc3c(c2)OCO3)C(C)(O)C[C@H](C)CN(C)[C@@H](C)[C@H](O)[C@@]1(C)O (some centres unmarked) |  |  | 3.8 ± 0.8 µM | 13.2 ± 1.5 µM
204 ± 4.5 µM | 85.3 ± 0.9 µM |  |  | CC[C@H]1OC(=O)[C@H](C)[C@@H](O[C@H]2C[C@@](C)(OC)[C@@H](O)[C@H](C)O2)[C@H](C)[C@@H](O[C@@H]2O[C@H](C)C[C@H](N(C)C)[C@H]2O)[C@](C)(O)C[C@@H](C)CN(C)[C@H](C)[C@@H](O)[C@]1(C)O [Azithromycin (AZM), Azithromycin, reference compound] | 127 ± 1 µM | 222 ± 18.1 µM |  | 
> 500 µM | 130 µM |  |  | CC[C@H]1OC(=O)[C@H](C)[C@@H](O[C@H]2C[C@@](C)(OC)[C@@H](O)[C@H](C)O2)[C@H](C)[C@@H](O[C@@H]2O[C@H](C)C[C@H](N(C)C)[C@H]2O)[C@](C)(OC)C[C@@H](C)C(=O)[C@H](C)[C@@H](O)[C@]1(C)O [Clarithromycin (CLM), Clarithromycin, reference compound] | 138.1 ± 1.1 µM | > 500 µM |  | 
> 500 µM | > 500 µM |  |  | CCC1OC(=O)[C@H](C)[C@H](OC2C[C@@](C)(OC)[C@@H](O)[C@H](C)O2)[C@H](C)[C@@H](OC2O[C@H](C)C[C@H](N(C)Cc3ccc(-n4cc(C)ccc4=O)cc3)[C@H]2O)[C@@](C)(OC)C[C@@H](C)C(=O)[C@H](C)[C@@H](O)[C@]1(C)O (some centres unmarked) [Compound 10a] | > 500 µM | > 500 µM |  | 
118 ± 28.4 µM | 116 ± 16 µM |  |  | CCC1OC(=O)[C@H](C)[C@H](OC2C[C@@](C)(OC)[C@@H](O)[C@H](C)O2)[C@H](C)[C@@H](OC2O[C@H](C)C[C@H](N(C)Cc3cn(Cc4ccc(-n5cc(C)ccc5=O)cc4)nn3)[C@H]2O)[C@@](C)(OC)C[C@@H](C)C(=O)[C@H](C)[C@@H](O)[C@]1(C)O (some centres unmarked) [Compound 10b] | 102.6 ± 0.8 µM | 153 ± 19 µM |  | 
11.1 ± 2.7 µM | 20.3 ± 1 µM |  |  | CCC1OC(=O)[C@H](C)[C@H](OC2C[C@@](C)(OC)[C@@H](O)[C@H](C)O2)[C@H](C)[C@@H](OC2O[C@H](C)C[C@H](N(C)Cc3ccc(-c4cn(Cc5ccc(-n6cc(C)ccc6=O)cc5)nn4)cc3)[C@H]2O)[C@@](C)(OC)C[C@@H](C)C(=O)[C@H](C)[C@@H](O)[C@]1(C)O (some centres unmarked) [Compound 10c] | 12.3 ± 1.8 µM | 5.1 ± 0.2 µM |  | 
> 500 µM | > 500 µM |  |  | CCC1OC(=O)[C@H](C)[C@H](OC2C[C@@](C)(OC)[C@@H](O)[C@H](C)O2)[C@H](C)[C@@H](OC2O[C@H](C)C[C@H](N(C)CCc3ccc(-n4cc(C)ccc4=O)cc3)[C@H]2O)[C@@](C)(OC)C[C@@H](C)C(=O)[C@H](C)[C@@H](O)[C@]1(C)O (some centres unmarked) [Compound 12a] | 119 µM | > 500 µM |  | 
35.3 ± 1.5 µM | 28.1 ± 1.8 µM |  |  | CCC1OC(=O)[C@H](C)[C@H](OC2C[C@@](C)(OC)[C@@H](O)[C@H](C)O2)[C@H](C)[C@@H](OC2O[C@H](C)C[C@H](N(C)Cc3ccc(-c4cn(CCc5ccc(-n6cc(C)ccc6=O)cc5)nn4)cc3)[C@H]2O)[C@@](C)(OC)C[C@@H](C)C(=O)[C@H](C)[C@@H](O)[C@]1(C)O (some centres unmarked) [Compound 12c] | 13.1 ± 1.2 µM | 14.2 ± 0.3 µM |  | 
10.9 ± 0.4 µM | 36.4 ± 6.6 µM |  |  | CCC1OC(=O)[C@H](C)[C@H](OC2C[C@@](C)(OC)[C@@H](O)[C@H](C)O2)[C@H](C)[C@@H](OC2O[C@H](C)C[C@H](N(C)Cc3ccc(-c4cn(CCCCc5ccc(-n6cc(C)ccc6=O)cc5)nn4)cc3)[C@H]2O)[C@@](C)(OC)C[C@@H](C)C(=O)[C@H](C)[C@@H](O)[C@]1(C)O (some centres unmarked) [Compound 14c] | 11.6 ± 0.3 µM | 12.4 ± 0.2 µM |  | 
35.4 ± 2.1 µM | 32 ± 0.1 µM |  |  | CCC1OC(=O)[C@H](C)[C@H](OC2C[C@@](C)(OC)[C@@H](O)[C@H](C)O2)[C@H](C)[C@@H](OC2O[C@H](C)C[C@H](N(C)CCCCC#Cc3ccc(-n4cc(C)ccc4=O)cc3)[C@H]2O)[C@@](C)(OC)C[C@@H](C)C(=O)[C@H](C)[C@@H](O)[C@]1(C)O (some centres unmarked) [Compound 19d] | 28.9 ± 1.9 µM | 24.3 ± 0.1 µM |  | 
23.8 ± 2.1 µM | 23.7 ± 2 µM |  |  | CCC1OC(=O)[C@H](C)[C@H](OC2C[C@@](C)(OC)[C@@H](O)[C@H](C)O2)[C@H](C)[C@@H](OC2O[C@H](C)C[C@H](N(C)CCCCCC#Cc3ccc(-n4cc(C)ccc4=O)cc3)[C@H]2O)[C@@](C)(OC)C[C@@H](C)C(=O)[C@H](C)[C@@H](O)[C@]1(C)O (some centres unmarked) [Compound 19e] | 24.2 ± 0.6 µM | 13.2 ± 0.7 µM |  | 
